Data taken from US6284789A, “Formation and composition of new optically active compounds” (The Research Foundation of State University of New York, priority 1999, dated 2001).
Like-named read-outs stand apart in the source and are kept apart here.

Legend:
tolpoisomerase II = settings: increased single and double strand breaks in DNA, background; cited from earlier work
[1] = system: leukemias and solid tumors; settings: background; cited from earlier work
[2] = system: tubulin / microtubule assembly; settings: background; cited from earlier work
[3] = background; cited from earlier work
antitumor activity = settings: background; cited from earlier work
cell division = settings: background; cited from earlier work
antiviral activity = settings: background; cited from earlier work
[4] = system: nucleoside transport in mammalian cells; settings: background; cited from earlier work
[5] = system: 60 human tumor cell line screen; test: NCI 60 human tumor cell line screen, in vitro antiproliferative activity (sulforhodamine B assay); format: cell-based; settings: for Percentage of cell lines affected at the given concentration: at the GI50 bound or range given on the same line of Table 3
Procedure: The NCI […] Screening Procedure is described in Monks et al., J. Natl. Cancer Inst., 83: […], as are the origins and processing of the cell lines. In summary, cell suspensions that are diluted according to the particular cell type and the expected target cell density (5000-40,000 cells per well based on cell growth characteristics) are added by pipet (100 μL) into 96-well microtiter plates. Inoculates are allowed a preincubation period of 24 hours at 37° C. for stabilization. Dilutions at twice the intended test concentration were added at time zero in 100 μL aliquots to the microtiter plate wells. Usually, test compounds are evaluated at five 10-fold dilutions. In routine testing, the highest well concentration is 10^-4 M, but for the standard agents the highest well concentration used depends on the agent. Incubations last for 48 hours in 5% CO2 atmosphere and 100% relative humidity. The cells are assayed by using the sulforhodamine B assay. A plate reader is used to read the optical densities, and a microcomputer processes the optical densities into the special concentration parameters.

[6] = system: standard panel of 12 human tumor cell lines; test: Hollow fiber assay, preliminary in vivo testing; parameters: species or system human tumor cell lines in mice; settings: i.p. injection once daily, 4 doses, 2 dose levels
Procedure: Preliminary in vivo testing was conducted by the hollow fiber assay on the oxabicyclooctane and the dioxatricyclodecanes identified as sufficiently active in the large scale in vitro cell screens. Each compound is tested against a standard panel of 12 human tumor cell lines, including NCI-H23, […], MDA-MB-231, MDA-MB-435, SW-620, COLO 205, LOX IMVI, UACC-62, OVCAR-3, OVCAR-5, U251, and SF-295. The cell lines are cultivated in RPMI-1640 containing 10% FBS and 2 mM glutamine. On the day preceding hollow fiber preparation, the cells are given a supplementation of fresh medium to maintain log phase growth. […] On the day of implantation, samples of each tumor cell line is quantitated for viable cell mass by a stable endpoint MTT assay so that the time 0 cell mass is known. Thus, the cytostatic and cytocidal capacities of the test compound can be assessed. […] Each agent is assessed by intraperitoneal injection at 2 dose levels with 3 mice/dose/experiment. […] The optical density of each sample is determined spectropphotomnetrically at 540 nm and the mean of each treatment group is calculated. The percent net cell growth in each treatment group is calculated and compared to the percent net cell growth in the vehicle treated controls. Each compound is assessed in a total of 4 experiments (3 cell lines/experiment×4 experiments=12 cell lines). […]

COc1cc([C@@H]2c3cc4c(cc3[C@@H](O[C@@H]3O[C@@H]5CO[C@@H](c6cccs6)O[C@H]5[C@H](O)[C@H]3O)[C@H]3COC(=O)[C@H]23)OCO4)cc(OC)c1O [teniposide]
Interaction and inhibition of topoisomerase II (tolpoisomerase II): interaction and inhibition of the enzyme tolpoisomerase II | Effectiveness in the treatment of leukemias and solid tumors [1]: effective in the treatment of a variety of leukemias and solid tumors | Inhibition of microtubule assembly [2]: not inhibitors of microtubule assembly

COc1cc([C@@H]2c3cc4c(cc3[C@@H](O[C@@H]3O[C@@H]5CO[C@@H](C)O[C@H]5[C@H](O)[C@H]3O)[C@H]3COC(=O)[C@H]23)OCO4)cc(OC)c1O [etoposide]
Interaction and inhibition of topoisomerase II (tolpoisomerase II): interaction and inhibition of the enzyme tolpoisomerase II | Effectiveness in the treatment of leukemias and solid tumors [1]: effective in the treatment of a variety of leukemias and solid tumors | Inhibition of microtubule assembly [2]: not inhibitors of microtubule assembly

COc1cc([C@@H]2c3cc4c(cc3[C@H](O)[C@H]3COC(=O)[C@H]23)OCO4)cc(OC)c1OC [PT, podophyllotoxin]
Inhibition of microtubule assembly [2]: inhibiting the assembly of tubulin into microtubules | Toxicity [3]: highly toxic | Antitumor / biological activity (antitumor activity): has antiviral and antitumor activity | Arrest of cell division (cell division): arrest of cell division at the mitotic stage of the cell cycle | Antiviral activity (antiviral activity): has antiviral and antitumor activity | Inhibition of nucleoside transport [4]: inhibit nucleoside transport in mammalian cells

COc1cc([C@]23OC[C@H](Cc4cc5c(cc42)OCO5)[C@@H]3CO)cc(OC)c1OC [No. 2]
Percentage of cell lines with the GI50 range ([5]; GI50 ranging from less than 10^-8 to 10^-5 molar): 26% | GI50 ([5]; observed for 26% of cell lines, read-out: GI50 range observed): 0.01 to 10 µM

COc1cc([C@@H]2c3cc4c(cc3[C@H](O)[C@H]3COC(=O)[C@@H]23)OCO4)cc(OC)c1OC (stereo in doubt) [picropodophyllotoxin]
Antitumor / biological activity (antitumor activity): biologically inactive

COc1cc([C@H]2c3cc(O)c(OC)cc3C[C@H]3C(=O)OC[C@H]23)ccc1O [ACON, α-Conidendrin]
Antitumor / biological activity (antitumor activity): biologically inactive

7-acetoxy-6-methoxytetralin-1-one [compound 87]
Percentage of cell lines affected at the given concentration [5]: 93%

COc1ccc([C@]23OC[C@H](Cc4cc(OC)c(OC)cc42)[C@@H]3CO)cc1OC [No. 5]
GI50 ([5]; 60 human tumor cell lines, 48 h, for the percentage of cell lines given beside it, read-out: GI50 (growth inhibition, 50%), GL50 [sic] in the source): > 100 µM | Percentage of cell lines affected at the given concentration [5]: 96%

COc1ccc([C@]23OC[C@H](Cc4cc(OC)c(OC)cc42)[C@@H]3COC(C)=O)cc1OC [No. 6]
Percentage of cell lines affected at the given concentration [5]: 10%

COc1cc([C@H]2c3cc(O)c(OC)cc3C[C@@H]3C(=O)OC[C@H]23)ccc1O [BCON, β-conidendrin]
Antitumor / biological activity (antitumor activity): biologically inactive

COc1cc([C@]23OC[C@H](Cc4cc5c(cc42)OCO5)[C@@H]3CO)cc(OC)c1OC [oxabicyclooctane]
Intraperitoneal score, hollow fiber assay ([6]; i.p. fiber implants): 14 | Subcutaneous score, hollow fiber assay ([6]; s.c. fiber implants): 2
